Test results published in paper PMC7156724, “Potent BRD4 inhibitor suppresses cancer cell-macrophage interaction” (Nature Communications, 2020).
Values joined by “and” are separate entries in the source; they are usually repeats but may differ in a detail not shown here. Equal values may be shown once.

Columns and labels:
[1] = system: TMD8 large B cell lymphoma; experiment: TMD8 large B cell lymphoma model tumor growth; type: in vivo, mouse; settings: for Tumor volume: n=6, individual animals
Text: PO, oral administration; QD, once daily; BID, twice daily. b–d Tumor growth curves for A2780 ovarian tumor (n = 5) (b), TMD8 large B cell lymphoma (n = 6) (c), and B16F10 melanoma (n = 5) (d) bearing mice treated with the indicated compounds once daily for 11-21 days. e, f Tumor growth curves for A375 melanoma (n = 6) (e), and patient-derived xenograft (PDX) of melanoma (n = 5) (f) bearing mice treated with the indicated compounds once daily (5 days on, 2 days off) for 21 days. For d–f, NHWD-870 used is NHWD-870-HCl synthesized using Suzuki coupling route. Data are presented as mean ± SEM in (a, b, d, f) and mean + SEM in (c, e). p values were calculated using two-tailed, unpaired t tests. *p < 0.05; **p < 0.01; ***p < 0.001. Source data are provided as a Source Data file.
4–6 weeks old female BALB/c nude mice were used for most experiments, with the exception of 6–8 weeks old female C57BL/6 mice were used for B16F10 experiments, and 6–8 weeks old male BALB/c nude mice and SD rats were used for pharmacokinetic experiments. All animals were purchased from Shanghai SIPPR-Bk Lab Animal Co., Ltd. All animals were housed under a regimen of 12 h light/12 h dark cycles and specific pathogen-free conditions. 5×10^6 NCI-H526, ES-2, MDA-MB231, A2780, A375, B16F10, and TMD-8 cells (0.1 ml) were injected subcutaneously into female nude mice. The melanoma patient-derived xenograft model was derived from a human melanoma sample (BRAF, NARS and NF1 wild type, and p53 mutant) removed from a patient in Xiangya Hospital. Surgically removed tumor fragments were implanted subcutaneously into female NSG mice. When the tumors grew to ~1000 mm^3, they were harvested and cryopreserved or immediately re-implanted for expansion or experiments. Mouse body weight and tumor sizes were measured every 3 days. Once the tumors grew to 150–200 mm^3, mice were treated with the compounds as described in the Figures. 1 × 10^6 A2780 cells (1 ml) were injected into the abdominal cavity of nude mice. Ascitic volume and tumor weight were measured by an electronic balance. All the procedures were evaluated and approved by the Institutional Animal Care and Use Committee of Central South University and Yale University.

[2] = system: A2780 cells; experiment: MTT cell growth assay, A2780; type: cell-based, human; settings: 5 days
Description: (§1) Fig. 2 NHWD-870 inhibited BRD4 phosphorylation and c-MYC expression, and suppressed cell growth. a Representative western blot analysis of p-BRD4 (s484/488), BRD4, c-MYC, and GAPDH after treatment of MDA-MB231, SUM159, A2780 ES-2, and H526 cells with JQ-1 or NHWD-870 at the indicated concentrations for 24 h. GAPDH served as the loading control. Selected from three independent experiments. b MTT assays of H526, A2780, ES-2, and MDA-MB231 cells treated with JQ-1 or NHWD-870 at the indicated concentrations for 5 days. Data are presented as mean ± SEM from three independent experiments. c, d Clonogenic assays of H526, A2780, ES-2 and MDA-MB231 cells treated with 250 nM JQ-1 or NHWD-870 for 5 days. Shown are representative images (c) and quantification of colonies (d). […] Shown are representative images (e) and quantification of relative colony sizes (f). Scale bar, 50 μm. Data are presented as mean ± SEM from five independent experiments. p values were calculated using two-tailed, unpaired t tests in this figure. **p < 0.01; ***p < 0.001. Source data are provided as a Source Data file.
(§2) 37℃, 5% CO2. […]

[3] = system: TAMs (CD68+ cells) in H526 tumors; experiment: Immunofluorescent staining of CD68 (TAMs) in subcutaneous H526 tumors; type: in vivo, mouse; settings: subcutaneous H526 tumors from Fig. 3a, individual tumors
Text: Shown are immunofluorescent staining of CD68 (macrophage marker, red) and E-Cadherin (cancer cells, green) (a) and quantification of CD68 positive cells (b) in vehicle, NHWD-870 treated H526 (n = 6) and A2780 (n = 5) tumors from Fig. 3a, b, respectively. Scale bar is 100 μm. […] Shown are representative immunofluorescent staining of Ki67 and CD68 (c) and quantification of percentage of Ki67+ cells in CD68+ cells (d). Scale bar is 30 μm. Data are presented as mean ± SEM of five different tumors. e Schematics of the animal experiments using an orthotopic mouse OC model, established by intraperitoneally injecting human A2780 cells into female recipient nude mice. […] Shown are representative immunofluorescent staining of Ki67 and CD68 (h) and quantification of Ki67^+CD68^− (i) or Ki67^+CD68^+ (j), or CD68^+ cells (k). […] Data are presented as mean ± SEM from five different mice. p values were calculated using two-tailed, unpaired t tests in this figure. *p < 0.05; **p < 0.01; ***p < 0.001. […]
Immunofluorescence staining of tumor sections was performed according to the manufacturer’s instructions. Slides were imaged using a Zeiss Axiovert 200 fluorescence microscope (Carl Zeiss MicroImaging; Thornwood, NY), and images were captured using Openlab3 software (Imprecision, Lexington, MA). Cleaved caspase 3, Ki67, CSF1, and CD68 positive cells were counted with ImageJ version 1.52s[58].

[4] = system: H526 cells; experiment: MTT cell growth assay, H526; type: cell-based, human; settings: 5 days
Description: as §1, §2

**Q.** With `Cc1nnn(C)c1-c1cnc2c3c4cnn(C)c4ccc3n([C@H](c3ccccc3)C3CCOCC3)c2c1` [NHWD-870] as the compound, how does the Tumor volume ([1]; Fig.3c TMD-8, 1.5mg/kg p.o. QD x 21D, day 0) read?
**A.** Its Tumor volume is 214.469 mm^3 and 165.444 mm^3 and 94.318 mm^3 and 104.496 mm^3 and 146.158 mm^3 and 140.975 mm^3.

**Q.** What about the Tumor volume ([1]; Fig.3c TMD-8, 1.5mg/kg p.o. QD x 21D, day 3) of the same compound?
**A.** The Tumor volume was 338.876 mm^3 and 252.047 mm^3 and 100.523 mm^3 and 149.534 mm^3 and 223.518 mm^3 and 132.449 mm^3.

**Q.** And the Tumor volume ([1]; Fig.3c TMD-8, 1.5mg/kg p.o. QD x 21D, day 7)?
**A.** Its Tumor volume is 459.258 mm^3 and 449.651 mm^3 and 146.864 mm^3 and 132.276 mm^3 and 263.192 mm^3 and 174.278 mm^3.

**Q.** And the Tumor volume ([1]; Fig.3c TMD-8, 1.5mg/kg p.o. QD x 21D, day 10)?
**A.** Its Tumor volume is 490.697 mm^3 and 432.678 mm^3 and 235.012 mm^3 and 190.412 mm^3 and 150.967 mm^3 and 163.029 mm^3.

**Q.** What about the Tumor volume ([1]; Fig.3c TMD-8, 1.5mg/kg p.o. QD x 21D, day 14) of the same compound?
**A.** Its Tumor volume is 640.246 mm^3 and 434.37 mm^3 and 213.016 mm^3 and 174.551 mm^3 and 71.2181 mm^3 and 175.498 mm^3.

**Q.** And the Tumor volume ([1]; Fig.3c TMD-8, 1.5mg/kg p.o. QD x 21D, day 17)?
**A.** The Tumor volume was 730.308 mm^3 and 597.229 mm^3 and 374.112 mm^3 and 196.792 mm^3 and 127.555 mm^3 and 127.945 mm^3.

**Q.** And the Tumor volume ([1]; Fig.3c TMD-8, 1.5mg/kg p.o. QD x 21D, day 21)?
**A.** The Tumor volume was 1151.12 mm^3 and 1193.19 mm^3 and 830.854 mm^3 and 339.119 mm^3 and 375.477 mm^3 and 217.147 mm^3.

**Q.** And the Tumor volume ([1]; Fig.3c TMD-8, 3mg/kg p.o. QD x 21D, day 0)?
**A.** Its Tumor volume is 135.749 mm^3 and 160.378 mm^3 and 111.097 mm^3 and 215.602 mm^3 and 96.5 mm^3 and 162.39 mm^3.

**Q.** What about the Tumor volume ([1]; Fig.3c TMD-8, 3mg/kg p.o. QD x 21D, day 3) of the same compound?
**A.** Its Tumor volume is 210.016 mm^3 and 166.954 mm^3 and 177.118 mm^3 and 367.777 mm^3 and 150.727 mm^3 and 208.299 mm^3.

**Q.** And the Tumor volume ([1]; Fig.3c TMD-8, 3mg/kg p.o. QD x 21D, day 7)?
**A.** Its Tumor volume is 347.833 mm^3 and 254.452 mm^3 and 292.586 mm^3 and 297.998 mm^3 and 182.149 mm^3 and 258.854 mm^3.

**Q.** What about the Tumor volume ([1]; Fig.3c TMD-8, 3mg/kg p.o. QD x 21D, day 10) of the same compound?
**A.** The Tumor volume was 278.167 mm^3 and 325.57 mm^3 and 336.135 mm^3 and 344.695 mm^3 and 159.095 mm^3 and 292.996 mm^3.

**Q.** And the Tumor volume ([1]; Fig.3c TMD-8, 3mg/kg p.o. QD x 21D, day 14)?
**A.** The Tumor volume was 177.492 mm^3 and 209.22 mm^3 and 327.654 mm^3 and 243.833 mm^3 and 100.203 mm^3 and 228.258 mm^3.

**Q.** And the Tumor volume ([1]; Fig.3c TMD-8, 3mg/kg p.o. QD x 21D, day 17)?
**A.** Its Tumor volume is 203.37 mm^3 and 180.739 mm^3 and 317.134 mm^3 and 320.512 mm^3 and 84.6294 mm^3 and 268.501 mm^3.

**Q.** What about the Tumor volume ([1]; Fig.3c TMD-8, 3mg/kg p.o. QD x 21D, day 21) of the same compound?
**A.** Its Tumor volume is 566.866 mm^3 and 363.185 mm^3 and 475.409 mm^3 and 503.514 mm^3 and 313.1 mm^3 and 324.211 mm^3.

**Q.** And the “effect on tumor growth” value ([1]; TMD8 large B cell lymphoma model, compared with Ibrutinib)?
**A.** Its value is “stronger tumor-suppressive effects”.

**Q.** And the “MTT assay, relative cell number” value ([2]; A2780, 0.1 nM)?
**A.** The value was 0.974 and 0.959 and 0.985.

**Q.** And the “MTT assay, relative cell number” value ([2]; A2780, 1 nM)?
**A.** Its value is 0.705 and 0.725 and 0.731.

**Q.** And the “MTT assay, relative cell number” value ([2]; A2780, 10 nM)?
**A.** Its value is 0.252 and 0.282 and 0.215.

**Q.** What about the “MTT assay, relative cell number” value ([2]; A2780, 100 nM) of the same compound?
**A.** Its value is 0.025 and 0.047 and 0.033.

**Q.** What about the “MTT assay, relative cell number” value ([2]; A2780, 500 nM) of the same compound?
**A.** Its value is 0.

**Q.** And the “MTT assay, relative cell number” value ([2]; A2780, 1000 nM)?
**A.** The value was 0.

**Q.** What about the “MTT assay, relative cell number” value ([2]; A2780, 5000 nM) of the same compound?
**A.** Its value is 0.

**Q.** What about the “MTT assay, relative cell number” value ([2]; A2780, 10000 nM) of the same compound?
**A.** The value was 0.

**Q.** What about the “quantification of CD68 positive cells” value [3] of the same compound?
**A.** The value was 0.3 and 1.5 and 0.1 and 0.7 and 0.5 and 1.1.

**Q.** And the “MTT assay, relative cell number” value ([4]; H526, 0.1 nM)?
**A.** The value was 0.977 and 0.969 and 0.948.

**Q.** And the “MTT assay, relative cell number” value ([4]; H526, 1 nM)?
**A.** The value was 0.658 and 0.633 and 0.625.

**Q.** And the “MTT assay, relative cell number” value ([4]; H526, 10 nM)?
**A.** Its value is 0.268 and 0.226 and 0.235.

**Q.** And the “MTT assay, relative cell number” value ([4]; H526, 100 nM)?
**A.** Its value is 0.103 and 0.115 and 0.127.

**Q.** What about the “MTT assay, relative cell number” value ([4]; H526, 500 nM) of the same compound?
**A.** Its value is 0.

**Q.** What about the “MTT assay, relative cell number” value ([4]; H526, 1000 nM) of the same compound?
**A.** The value was 0.

**Q.** What about the “MTT assay, relative cell number” value ([4]; H526, 5000 nM) of the same compound?
**A.** Its value is 0.

**Q.** And the “MTT assay, relative cell number” value ([4]; H526, 10000 nM)?
**A.** The value was 0.
